In PMC3263330 (2011):
Substitutions are numbered along the chain they refer to.

Key:
[1] = molecular target: T1, aryl hydrocarbon receptor (mAhR) (Mus musculus, UniProt P30561, S359A); assay: [3H]TCDD specific binding, hydroxyapatite assay
T1 sequence (P30561 10-848 S359A): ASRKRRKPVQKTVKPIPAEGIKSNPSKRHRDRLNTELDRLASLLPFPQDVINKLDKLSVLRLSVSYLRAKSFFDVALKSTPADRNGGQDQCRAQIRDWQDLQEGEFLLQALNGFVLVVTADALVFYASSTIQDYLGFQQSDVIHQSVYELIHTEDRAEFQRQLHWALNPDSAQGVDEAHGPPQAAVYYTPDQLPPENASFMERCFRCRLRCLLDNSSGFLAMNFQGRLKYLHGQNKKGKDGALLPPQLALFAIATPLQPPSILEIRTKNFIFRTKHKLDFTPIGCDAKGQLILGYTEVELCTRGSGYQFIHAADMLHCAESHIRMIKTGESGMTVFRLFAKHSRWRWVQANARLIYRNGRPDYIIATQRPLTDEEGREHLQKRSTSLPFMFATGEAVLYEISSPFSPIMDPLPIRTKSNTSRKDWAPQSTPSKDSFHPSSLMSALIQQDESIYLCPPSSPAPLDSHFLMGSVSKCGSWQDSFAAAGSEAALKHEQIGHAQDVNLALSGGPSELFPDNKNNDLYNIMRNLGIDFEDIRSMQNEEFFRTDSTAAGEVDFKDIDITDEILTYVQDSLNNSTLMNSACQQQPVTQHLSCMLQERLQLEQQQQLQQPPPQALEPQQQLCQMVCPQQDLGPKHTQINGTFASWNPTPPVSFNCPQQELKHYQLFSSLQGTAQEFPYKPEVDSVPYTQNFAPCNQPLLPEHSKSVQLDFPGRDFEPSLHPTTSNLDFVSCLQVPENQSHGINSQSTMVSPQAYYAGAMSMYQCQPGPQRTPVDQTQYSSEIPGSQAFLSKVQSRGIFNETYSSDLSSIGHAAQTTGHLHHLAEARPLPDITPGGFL

[2] = molecular target: T2, aryl hydrocarbon receptor (mAhR) (Mus musculus, UniProt P30561); assay: [3H]TCDD; type: binding
T2 sequence (P30561 10-848): T1 sequence (P30561 10-848 S359A) with A350S

[3] = molecular target: T2, aryl hydrocarbon receptor (mAhR); assay: competitive [3H]TCDD hydroxyapatite radioligand binding assay; conditions: read-out: Experimental IC50 (M), in vitro synthesized mAhR

| SMILES | % reduction of binding vs wild type [1] | [3H]TCDD (2 nM) specific binding, hydroxyapatite assay [2] | IC50 [3] [M] |
| --- | --- | --- | --- |
| Clc1cc2c(cc1Cl)Oc1cc(Cl)c(Cl)cc1O2 [TCDD, 2,3,7,8-tetrachlorodibenzo-p-dioxin] | ~ 40 % reduction of binding vs wild type | THS compounds displace [^3H]TCDD from the in vitro synthesized AhR in concentration-dependent manner. |  |
| O=[N+]([O-])c1cc(C(F)(F)F)ccc1NCc1ccco1 [THS-020] |  |  | 4.2e-06 |
